Measured values published in patent publication US20260027073A1, “USE OF SMALL-MOLECULE COMPOUND HAVING NAPHTHYLAMINE STRUCTURE” (HANGZHOU PHECDAMED CO., LTD., priority 2023, published 2026).

Legend:
[1] = test system: HGPS-MSC; assay: Senescence of HGPS patient derived mesenchymal stem cells; assay type: cell-based, human; conditions: 10 μM
Method: Mesenchymal stem cells HGPS-MSC differentiated from pluripotent stem cells (iPSC) of patients with Hutchinson-Gilford Progeria Syndrome (HGPS) were taken for culture, and the experiment was divided into three groups, namely, young cells cultured for 7 generations, labeled as Con-Y; senescent cells cultured for 12 generations, labeled as Con-O; and the administration group to which 10 μM of TJ01-013 was added during the process of culture, similarly cultured up to the 12th generation, labeled as Con-O+TJ01-013; the drug administration group to which 10 μM positive drug Ionafarnib was added during the process of culture, similarly cultured up to the 12th generation, and labeled as Con-O+ Ionafarnib; after the end of the treatment, all the cells were placed under the microscope to observe the morphology of the cells, and the proportion of SA-β-gal+ cells was counted. The levels of DNA damage marker γ-H2AX and heterochromatin modification H3K9me3 after TJ01-013 treatment and Ionafarnib treatment were detected by immunofluorescence technique (the specific procedure was described previously).

[2] = test system: myocardial infarction rats; assay: Myocardial infarction by coronary artery ligation; assay type: in vivo, SD rats; conditions: TJ01-013 30 mg/kg, Entresto 10 mg/kg, oral, 4 weeks
Method: 180 g-200 g SD rats were anesthetized by chloral hydrate after fasting for 12 h, the hair from the mandible to the upper part of the abdominal cavity and the ventral surfaces of the limbs was removed cleanly, and they were fixed on the surgical table, firstly, a small incision of about 1.5 cm was made in the neck with a scalpel, and then the subcutaneous muscle layer was bluntly separated with surgical scissors to expose the trachea, and then the tracheal tube was intubated and connected to the animal respiratory machine. After sterilizing with iodophor, the skin was cut on the left side of the chest between the 3rd and 4th ribs, and the muscles were bluntly separated to expose the ribs. The 3rd rib was cut with surgical scissors, hemostatic forceps were used to clamp and break the cut rib, and an eyelid opener was placed to peel the pericardium. After the pericardium was cut, a cotton swab moistened with saline was used to gently pivot the heart to locate the left auricle and coronary arteries. A threaded suture needle was clamped with a microscopic needle holder, and passed through the myocardium from right to left at 2-3 mm below the left auricle to ligate the coronary artery. At the end of the ligation, the organs in the thoracic cavity were recovered with saline-soaked cotton swabs, and figure-of-eight sutures were applied to the third and fourth ribs. After the rib layer suture was completed, subcutaneous muscle layering suture was performed, and the skin was finally sutured. After dialing out the tracheal tube, the rats were closely observed whether they had spontaneous respiration or not, and if there was no respiration they should be immediately pressed on the chest cavity for cardiopulmonary resuscitation. The electrocardiograph was connected to measure the postoperative electrocardiogram. […] The drug was administered orally by gavage in a volume of 10 ml/kg, and the frequency of administration was once a day for 4 weeks, and then the rats were anesthetized for cardiac ultrasound.
The rats were anesthetized by intraperitoneal injection of sodium pentobarbital 40 mg/kg, and the limbs were fixed on a wooden board in supine position, and the board was tilted to the left at 30 degrees. The chest was shaved and a II lead ECG was connected. A ULTRAMARK 9 ultrasonic diagnostic instrument from ATL, USA was used with a wide bandwidth line array probe with a frequency of 10 MHz-5 MHz. The Doppler detection frequency was 6.0 MHz, the length of the probe was 38 mm, the gain of the instrument was fixedly set as 50 dB in the experiment, and the depth of the image was adjusted to 2.5 cm. The probe was placed on the left side of the sternum at 10-30 degrees from the midline of the sternum to display the parasternal left ventricular long-axis view, and the probe was rotated clockwise by 90 degrees to display the left ventricular view. Doppler flow measurements of the mitral and aortic valves were performed in the parasternal left ventricular long-axis view and the pulmonary artery long-axis view. Ultrasound measurement indexes included left ventricular end-diastolic internal diameter (LVDd), end-systolic internal diameters (LVDs), left ventricular ejection fraction EF, left ventricular short-axis shortening rate FS, and infarct size.

O=C(O)C[S+]([O-])c1cc(NS(=O)(=O)c2ccc(Br)cc2)c2ccccc2c1O (centres unmarked) [I-1] was tested, and the “percentage of SA-β-gal+ cells” value ([1]; 12th generation, vs Con-O, FIG. 54) was “significantly decreased”, the “level of DNA damage marker γ-H2AX” value ([1]; FIG. 55) was “significantly reduced” and the “expression level of heterochromatin-modified H3K9me3” value ([1]; FIG. 56) was “restored its expression level to some extent”. For the same molecule, the infarct size ([2]; FIG. 37) was “reduced”, the “left ventricular end-diastolic diameter (LVDd)” value ([2]; FIG. 38) was “no significant effect” and the “end-systolic diameter (LVDs)” value ([2]; FIG. 39) was “did not have a significant effect”. The “left ventricular ejection fraction EF” value ([2]; FIG. 40) was “significantly increased” and the “left ventricular short-axis fractional shortening FS” value ([2]; FIG. 41) was “significantly increased”.
